The record followed here is patent publication US5977097A, “1-methylcarbapenem derivatives” (Sankyo Company Limited, priority 1996, dated 1999).

≈ marks a conversion by molar mass, not a printed value.

The nature of one series: Nephrotoxicity. It is filed as in vivo. The settings on record: rabbits, intravenous, 200 mg/kg. Here is the method:
When the compounds of the present invention were administered to rabbits, the incorporation in to the renal cortex is relatively low.

The subject of another series is Pseudomonas aeruginosa. Kind of series: Antibacterial activity against Pseudomonas aeruginosa compared with aminomethyl compounds A and B. It is filed as cell-based. Here is the method:
Antibacterial activity was measured by the agar plate dilution method, whereby the minimum growth inhibitory concentration (MIC: μg/ml) against various pathogenic bacteria was determined. The test results on the antibacterial activity of the compounds of the invention of Examples 3 and 7 against Staphylococcus aureus […], Escherichia coli NIHJ and Pseudomonas aeruginosa No. 7 are shown in Table 2. Incidentally, Compounds A and B used for comparison are compounds of Example 3 in Japanese Patent Application Kokai No. Hei 5-310740 [compounds represented by the formula (I) of the present invention, wherein R^1, R^2 and R^3 represent hydrogen atoms]. Compound A has the R configuration at the binding position of the aminomethyl group. Compound B has the S configuration at the binding position of the aminomethyl group. The culture of the bacterial strain to be tested was inoculated intraperitoneally to groups of mice (SPF, DDY, male), each group consisting of 7 animals. A solution of the test compound was subcutaneously administered twice in total to the mice, once immediately and once four hours after the inoculation. From the survival ratio five days after infection, the 50% effective dose (ED50 : mg/kg) was determined by the Probit method and the single dose of test compound was indicated.

Series [1] can be described thus: Pharmacokinetics such as half-life in blood. The settings on record: in vivo.
For series [2], the system named is Pseudomonas aeruginosa 1008. Kind of series: In vivo antibacterial activity, treatment of infected mice (Test 3). The conditions noted are these: Pseudomonas aeruginosa, 1008, sc, 120 h, intraperitoneal infection, subcutaneous twice (immediately and 4 h after inoculation), survival at five days, expressed as single dose, read-out: Treatment against infections, 50% effective dose (ED50). Also on record: species or system mice (SPF, DDY, male). Here is the method: The culture of the bacterial strain to be tested was inoculated intraperitoneally to groups of mice (SPF, DDY, male), each group consisting of 7 animals. A solution of the test compound was subcutaneously administered twice in total to the mice, once immediately and once four hours after the inoculation. From the survival ratio five days after infection, the 50% effective dose (ED50 : mg/kg) was determined by the Probit method and the single dose of test compound was indicated. The test results of the compound of Example 3, compound A and Meropenem against Pseudomonas aeruginosa 1008 are shown in Table 4. Incidentally, Compound A is as described above.

Series [3] deals with Escherichia coli NIHJ. Kind of series: In vitro antibacterial activity (Test 2). Type of series: cell-based. The conditions noted are these: Nutrient Agar Eiken, read-out: Minimum Growth Inhibitory Concentration (MIC). The procedure:
(§1) Antibacterial activity was measured by the agar plate dilution method, whereby the minimum growth inhibitory concentration (MIC: μg/ml) against various pathogenic bacteria was determined. The test results on the antibacterial activity of the compounds of the invention of Examples 3 and 7 against Staphylococcus aureus 209P, Escherichia coli NIHJ and Pseudomonas aeruginosa No. 7 are shown in Table 2.
(§2) The antibacterial activities of the compounds of the invention of Examples 3 and 7 and meropenem against Staphylococcus aureus 209P, Escherichia coli NIHJ and Pseudomonas aeruginosa 3719 (strain resistant to meropenem) are shown in Table 3.
(§3) The medium used for the measurement was Nutrient Agar Eiken (Eiken Chemicals Co., Ltd.).

Series [4] deals with Pseudomonas aeruginosa 3719 (strain resistant to meropenem). Briefly: In vitro antibacterial activity (Test 2). The conditions noted are these: Pseudomonas aeruginosa 3719 (resistant to meropenem); Nutrient Agar Eiken; read-out: Minimum Growth Inhibitory Concentration (MIC). It is filed as cell-based. The procedure:
as §1, §2, §3

The test system of series [5] is Staphylococcus aureus 209P. Kind of series: In vitro antibacterial activity (Test 2). Type of series: cell-based. The settings on record: Nutrient Agar Eiken, read-out: Minimum Growth Inhibitory Concentration (MIC). Here is the method: as §1, §2, §3
Series [6] concerns Pseudomonas aeruginosa No. 7. Briefly: In vitro antibacterial activity by agar plate dilution method (Test 1). It is filed as cell-based. The conditions noted are these: Mueller-Hinton II agar, read-out: Minimum Growth Inhibitory Concentration (MIC). The procedure: (§4) Antibacterial activity was measured by the agar plate dilution method, whereby the minimum growth inhibitory concentration (MIC: μg/ml) against various pathogenic bacteria was determined. The test results on the antibacterial activity of the compounds of the invention of Examples 3 and 7 against Staphylococcus aureus […], Escherichia coli NIHJ and Pseudomonas aeruginosa No. 7 are shown in Table 2. Incidentally, Compounds A and B used for comparison are compounds of Example 3 in Japanese Patent Application Kokai No. Hei 5-310740 [compounds represented by the formula (I) of the present invention, wherein R^1, R^2 and R^3 represent hydrogen atoms]. Compound A has the R configuration at the binding position of the aminomethyl group. Compound B has the S configuration at the binding position of the aminomethyl group. The medium used for the measurement was Mueller-Hinton II agar (MHA, Becton Dikinson Microbiology Systems).

Series [7] relates to Escherichia coli NIHJ. The series is described as above. It is filed as cell-based. The conditions noted are these: Mueller-Hinton II agar, read-out: Minimum Growth Inhibitory Concentration (MIC). The procedure:
as §4

For series [8], the system named is Staphylococcus aureus 209P. The description is as above. Type of series: cell-based. The conditions noted are these: Mueller-Hinton II agar, read-out: Minimum Growth Inhibitory Concentration (MIC). Here is the method:
as §4

For the compound `CNC[C@H]1CCN(C(=O)[C@@H]2C[C@H](SC3=C(C(=O)O)N4C(=O)[C@H]([C@@H](C)O)[C@H]4[C@H]3C)CN2)C1` [Example 3, (1R,5S,6S)-6-[(1R)-1-Hydroxyethyl]-1-methyl-2-[(2S,4S)-2-[(3R)-3-methylaminomethylpyrrolidin-1-ylcarbonyl]pyrrolidin-4-ylthio]-1-carbapen-2-em-3-carboxylic acid], the nephrotoxicity entry in the series “Nephrotoxicity” is “did not exhibit nephrotoxicity”. For the same compound, in the series with Pseudomonas aeruginosa, the “activity against Pseudomonas aeruginosa” value is “superior activity against Pseudomonas aeruginosa”. The “pharmacokinetic properties such as half-life in blood” value in series [1] is “excellent pharmacokinetic properties such as half-life in blood”. Moreover, the ED50 in series [2] came to 0.22 mg/kg. In addition, the MIC in the series with Escherichia coli NIHJ [3] was not above 0.01 µg/mL; in series [4], 0.2 µg/mL (≈ 0.442 µM); in [5] it was not above 0.01 µg/mL; in series [6] it was 0.05 µg/mL (≈ 0.11 µM); with Escherichia coli NIHJ [7] it was 0.02 µg/mL (≈ 0.0442 µM); in series [8], 0.02 µg/mL (≈ 0.0442 µM).
Regarding `C[C@@H](O)[C@H]1C(=O)N2C(C(=O)O)=C(S[C@@H]3CN[C@H](C(=O)N4CC[C@H](CNC(=N)N)C4)C3)[C@H](C)[C@H]12` [Example 7, (1R,5S,6S)-2-[(2S,4S)-2-[(3R)-3-Guanidinomethylpyrrolidin-1-ylcarbonyl]pyrrolidin-4-ylthio]-6-[(1R)-1-hydroxyethyl]-1-methyl-1-carbapen-2-em-3-carboxylic acid], the MIC with Escherichia coli NIHJ [3] is not above 0.01 µg/mL; in series [4], 0.1 µg/mL (≈ 0.208 µM); in series [5] it was not above 0.01 µg/mL; in [6], 0.05 µg/mL (≈ 0.104 µM); in the series with Escherichia coli NIHJ [7] it was 0.02 µg/mL (≈ 0.0416 µM); in series [8], 0.02 µg/mL (≈ 0.0416 µM).
Regarding `C[C@@H](O)[C@H]1C(=O)N2C(C(=O)O)=C(S[C@@H]3CN[C@H](C(=O)N(C)C)C3)[C@H](C)[C@H]12` [Meropenem, meropenem, reference compound], in series [2], the 50% effective dose (ED50) amounted to 0.72 mg/kg. Further, the MIC with Escherichia coli NIHJ [3] was not above 0.01 µg/mL; in series [4] it was 6.2 µg/mL (≈ 16.2 µM); in series [5] it was 0.02 µg/mL (≈ 0.0522 µM).

Usually ED50 stands for the dose at which the effect has come halfway, by size or by number of responders.
